Usually IC50 stands for the midpoint of a concentration-inhibition curve. A high value points to weaker potency. The Kd is the equilibrium constant for the complex coming apart. A lower Kd goes with tighter binding.

Drawing on BindingDB's records for patent US20250127913 (Lycia Therapeutics, 2025), this text covers IC50 and Kd for one compound.

In one experiment the target is Tumor necrosis factor (Homo sapiens, UniProt P01375). As to the kind of experiment: TNFα Binding Assay. As to the method: Table 15: TNFα binding was measured in black 96-well plates using a time-resolved FRET assay using a previously described fluorescence acceptor TNFα probe (Xiao et al J. Med. Chem. 2020). Biotinylated TNFα was purchased from Acro Biosystems. Binding reactions were conducted in 20 mM Hepes (pH 7.5) 10 mM MgCl2 0.015% Tween-20 0.05 mg/ml BSA 2% DMSO with 1 nM TNFα 0.5 nM Streptavidin-Tb and 80 nM probe. Test compounds were resuspended in DMSO and 3-fold serial dilutions were made at 100× final concentrations. Fluorescence was measured using λex=340 nm, λem=490, 520 nm on an SpectraMax M5e plate reader (Molecular Devices) after 16 hr incubation time. Dose responses were conducted in duplicate and normalized to the response with DMSO (high) and 100 nM (R)-3-(1-((3-chloro-7-fluoro-6-(2-(2-hydroxypropan-2-yl)pyrimidin-5-yl)-2-methyl-1,5-naphthyridin-4-yl)amino)ethyl)-4-fluorobenzonitrile (low) on each plate. IC50 values were determined by fitting to 4-parameter curves in GraphPad Prism.
Chain of Tumor necrosis factor (P01375 whole entry): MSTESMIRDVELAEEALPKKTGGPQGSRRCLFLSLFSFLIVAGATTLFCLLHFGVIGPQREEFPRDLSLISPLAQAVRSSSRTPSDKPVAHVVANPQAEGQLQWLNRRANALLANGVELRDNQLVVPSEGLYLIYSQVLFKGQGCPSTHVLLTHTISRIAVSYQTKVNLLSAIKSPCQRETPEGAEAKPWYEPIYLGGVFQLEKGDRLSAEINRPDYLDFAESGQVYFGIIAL

The target in experiment [1] is T1, Folate receptor beta (Homo sapiens, UniProt P14207). In words: Folate Receptor Binding Assay. The protocol: Table 15: Folate receptor binding was measured in black 96-well plates using a fluorescence polarization assay. A fluorescent probe consisting of a folate analog linked to Cy5 (FR-Cy) was custom synthesized. Test compounds were resuspended in DMSO and 3-fold serial dilutions were made from 300-0.015 μM (100× final concentrations). Binding reactions were conducted in 200 μl final volume in 20 mM Hepes (pH 7.5) 250 mM NaCl 0.0150 Tween-20 1% DMSO with 2.5 nM folate receptor beta (Acro Biosystems) and 2 nM probe. Fluorescence polarization was measured using λex=620 nm, λem=688 nm on an Envision plate reader (Perkin Elmer) after 2 hr incubation time. Dose responses were conducted in duplicate and normalized to the response with DMSO (high) and 1 μM folic acid (low) on each plate. IC50 values were determined by fitting to 4-parameter curves in GraphPad Prism.
T1 sequence (P14207 whole entry): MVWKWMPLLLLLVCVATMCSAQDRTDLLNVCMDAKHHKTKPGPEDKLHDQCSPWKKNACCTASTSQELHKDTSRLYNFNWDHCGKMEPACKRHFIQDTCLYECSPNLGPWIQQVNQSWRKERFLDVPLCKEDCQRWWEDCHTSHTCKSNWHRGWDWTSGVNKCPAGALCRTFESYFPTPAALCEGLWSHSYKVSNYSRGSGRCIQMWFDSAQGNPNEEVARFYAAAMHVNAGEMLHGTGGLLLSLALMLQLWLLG

Experiment [2] addresses T1, Folate receptor beta. In words: Folate Receptor SPR Assay. The protocol: Table 16: Folate receptor SPR binding assays were conducted on a Biacore 8K instrument (Cytiva) using biotinylated folate receptor beta (Acro Biosystems). Briefly, folate receptor was immobilized at -550 RU on a streptavidin chip (Cytiva) in 10 mM HEPES pH 7.5, 150 mM NaCl, 0.05% Tween 20. Multi-cycle kinetic studies were conducted with 8 compound concentrations using 2-fold dilutions in 10 mM HEPES pH 7.5, 150 mM NaCl, 0.05 % Tween 20, 2% DMSO at 25° C. A flow rate or 75 μl/mmn with an association time of 120 s and a dissociation time of 600 s were used. Surfaces were regenerated with 4 M MgCl2 at 30 μl/min for 30 s. Data were fit to a 1:1 model to determine the reported binding parameters.

As for `Cc1nc2cc(F)c(-c3cnc(N4CCN(C(=O)COCCn5cc(COCCOCCOCCOCCNC(=O)CC[C@H](NC(=O)[C@H]6CC[C@H](NCc7cnc8nc(N)nc(O)c8n7)CC6)C(=O)O)nn5)CC4)nc3)nc2c(N[C@H](C)c2ccccc2F)c1Cl` [US20250127913, Compound I-91], the results for the IC50 at Tumor necrosis factor and on Folate receptor beta [1] were 17.5 nM and 138 nM, respectively. The dissociation constant Kd at Folate receptor beta [2] was determined as 0.201 nM.
